Literature values, collected in US9078864B2, “Agonists for antimicrobial peptide systems” (priority 2008, dated 2015).

Test system: shigellosis
Details: patients with shigellosis; unit not given; cited from earlier work

CC(C)(C)C(=O)OCOC(=O)[C@@H]1N2C(=O)[C@@H](/N=C/N3CCCCCC3)[C@H]2SC1(C)C [pivmecillinam]
duration of diarrhoea (mean±SD): 3.2±1.8
